For assay [1], the system named is Radical scavenging activity. Kind of assay: Antioxidant activity assessed as DPPH radical scavenging activity. Format: functional.
Assay [2] deals with Human immunodeficiency virus 1. Kind of assay: Antiviral activity against HIV1 infected in human MT4 cells. Format: functional, organism-based.

Consider 3 compounds from ChEMBL document CHEMBL1146473, “Tyromycic acids B-E, new lanostane triterpenoids from the mushroom Tyromyces fissilis” (J Nat Prod, 2004).

Active and inactive are the calls of the source. The calls are words filed in the database; no cut-off is given here.

With `C/C(=C\CC[C@@H](C)[C@H]1CC[C@@]2(C)C3=CC[C@H]4C(C)(C)C(=O)CC[C@]4(C)C3=C[C@@H](O)[C@]12C)C(=O)O`, the result in assay [1] and in assay [2] was inactive.

As to `CC(=O)O[C@@H]1C2=C(CC[C@H]3C(C)(C)C(=O)CC[C@]23C)[C@]2(C)CC[C@H]([C@H](C)CC/C=C(\C)C(=O)O)[C@@]2(C)[C@@H]1OC(C)=O`, the outcome in assay [1] and in assay [2] was inactive.

For `CC(=O)O[C@@H]1C=C2C(=CC[C@H]3C(C)(C)[C@@H](O)CC[C@]23C)[C@]2(C)CC[C@H]([C@H](C)CC/C=C(\C)C(=O)O)[C@@]12C`, the outcome in assay [1] and in assay [2] was inactive.
